Laboratory results taken from US20170226507A1, “COORDINATE CONTROL OF PATHOGENIC SIGNALING BY THE MIR-130/301 FAMILY IN PULMONARY HYPERTENSION AND FIBROPROLIFERATIVE DISEASES” (The Brigham and Women's Hospital, Inc., priority 2014, published 2017).
Entries after “also recorded” stand apart in the source; their conditions may differ. No end group written: not given here.

What was measured:
[1] = tested on: STAT3; assay: STAT3 phosphorylation in PASMCs (conditioned media from PAECs or endothelin-1; immunoblot); format: cell-based, human; conditions: direct exposure to endothelin-1
Experimental: (§1) (FIG. 40A) A schematic diagram of co-culture experiments: conditioned media from transfected PAECs (miRNA, anti-miRNA, tiny-LNA or siRNA under normoxic or hypoxic conditions) were filtered and applied onto naïve PASMCs cultured in matrigel. At specific times, PASMCs or PASMC-matrigel cultures were arrested and analyzed for STAT3 activation (phosphorylation) or contraction, respectively.
(§2) 50000 PASMC were embedded in 100 ul of matrix gel as previous described (Gagiolli et al) and plated into well of a 96 well plate. After 1 h at 37° C., these matrices were overlaid with 100 ul of conditioned PAECs serum-free medium (transfected with siRNA, miRNA or anti-miRNA and supplemented with Ambriesentan 10 uM). Every 12 h, medium was changed and at day 4 the gels were photographed and the relative diameter of the well and the gel were measured using ImageJ. The percentage contraction was calculated using the formula 100*(well diameter−gel diamter)/well diameter. For the co-culture experiment, conditioned media from PAEC transfected as indicated were applied on PASMCs or Fibroblast previously starved (24 h). Cells were collected at different time and analyzed by western blotting.
Cells were lysed in RIPA buffer (Santa Cruz Biotechnology) and the protein concentration determined using a Bradford assay (Biorad). Protein lysate ([…]) were resolved by SDS-PAGE and transferred onto a PVDF membrane (Biorad). Membranes were blocked in 5% non-fat milk in TN buffer (50 mM Tris-HCl pH 7.4, 150 mM NaCl) and incubated in the presence of the primary and then secondary antibodies. After washing in TN buffer containing 0.1% Tween, immunoreactive bands were visualized with the ECL system (Amersham Biosciences). […] Primary antibodies for STAT3 (#9139) and P-STAT3 (Tyr-705; #9145) were purchased from Cell Signaling. Primary antibodies against actin (ab 3280), was obtained from Abcam. Appropriate secondary antibodies (anti-rabbit and anti-mouse) coupled to HRP were used (Santa Cruz Biotechnology).

[2] = tested on: PASMCs; assay: Contraction assay of PASMCs in matrigel; format: cell-based, human; conditions: endothelin-1 for 4 days vs vehicle
Experimental: as §1, §2

[3] = tested on: Bleomycin-induced lung fibrosis in mice; assay: Bleomycin-induced lung fibrosis in mice; format: in vivo, mouse
[4] = tested on: hypoxia-induced PH in mice; assay: Hypoxia-induced PH in mice: BAPN (prevention, rescue) or GW3965 (prevention); format: in vivo, mouse
Source text: Finally, we wanted to determine if ApoE activity and/or LOX-dependent vascular stiffening were essential for ECM stiffening and PH development by miR-130/301. To assess the importance of ApoE activity, we attempted to prevent PH in mice via treatment with daily dietary ingestion of the liver-X nuclear hormone receptor (LXR) agonist GW3965, a known pharmacologic inducer of ApoE (Pencheva et al., 2014), simultaneously with hypoxia (FIGS. 62A-62H and 68A-H). Alternatively, experiments were designed to either prevent or reverse hypoxia-induced PH in mice via serial treatment with a pharmacologic inhibitor of LOX (Levental et al., 2009), β-aminopropionitrile BAPN, administered either simultaneously with hypoxia exposure (“prevention”) or after disease development (“reversal”) (FIGS. 62A-62H and 68A-H). In all cases of GW3965 or BAPN treatment, collagen crosslinking (FIG. 62D, 62H, FIG. 68) was inhibited, leading to decreased indices of PH, as reflected by RVSP (FIG. 62A, 62E), right ventricular remodeling (RV/LV+S ratio; FIG. 62B, 62F) and pulmonary arteriolar muscularization (FIG. 62C, 62G). GW3965 or BAPN treatment also reversed Pparγ and Lrp8 down-regulation (FIGS. 68A-68H) as well as reduced YAP nuclear localization (FIG. 62D, 62H) and YAP activation, as reflected by decreased Ctgf (FIGS. 68A-68H). Thus, considering the convergent data regarding pharmacologic manipulation of miR-130/301, APOE, and LOX, we can conclude that the YAP-TAZ-miR-130/301 circuit and its downstream network of targets act as master regulators of ECM remodeling in PH and represent a new set of targets for tailored molecular therapy in this disease.
To determine the effects of the LXR agonist GW3965 (Sigma-Aldrich) and consequent APOE induction on PH development, as previously described (Pencheva et al., 2014), mice were exposed to normobaric hypoxia and simultaneously assigned to control chow or chow supplemented with GW3965 (Research Diets, Inc.) at doses of 100 mg of drug per kilogram of mouse per day (based on average daily intake of […] of chow).
Picrosirius Red stain was achieved through the use of 5 μm paraffin sections stained with 0.1% Picrosirius Red (Direct Red80, Sigma-Aldrich) and counterstained with Weigert's hematoxylin to reveal fibrillar collagen. The sections were then serially imaged using with an analyzer and polarizer oriented parallel and orthogonal to each other. Microscope conditions (lamp brightness, condenser opening, objective, zoom, exposure time, and gain parameters) were constant throughout the imaging of all samples. A minimal threshold was set on appropriate control sections for each experiment in which only the light passing through the orthogonally-oriented polarizers representing fibrous structures (i.e., excluding residual light from the black background) was included. The threshold was maintained for all images across all conditions within each experiment. The area of the transferred regions that was covered by the thresholded light was calculated and at least 10 sections/vessel per condition were averaged together (Image J software).
This protocol was adapted from a previously published protocol (Hu et al.). Mouse lung was weighed, minced, and incubated in 0.5 M acetic acid at 4° C. After overnight digestion, the acetic acid-soluble and insoluble fractions were isolated by centrifugation. The soluble fraction was stored at −80° C., while the insoluble fraction was digested by overnight incubation in 6M hydrochloric acid at 85° C. Concentrations of soluble and insoluble (gelatinous) collagen fractions were determined using a Sircol Soluble Collagen Assay Kit (Biocolor) with a colorimetric reaction (measured at 550 nm) and a provided collagen reference standard curve.

[5] = tested on: liver-X nuclear hormone receptor (LXR); assay: Oral LXR agonist GW3965 in bleomycin-exposed mice (lung fibrosis); format: in vivo, mouse; conditions: 100 mg/kg/day in chow
Experimental: C57BL/6 mice (7-8 weeks old) were exposed to 0.035 U of bleomycin via oropharyngeal route. In the control group, saline (PBS) was administered via the same route. Mice were euthanized 14 days or 21 days after bleomycin administration. To determine the effects of the LXR agonist GW3965 (Sigma-Aldrich) and consequent APOE induction on lung fibrosis, as previously described^12, mice were exposed to bleomycin (as described above) and simultaneously assigned to control chow or chow supplemented with GW3965 (Research Diets, Inc.) at doses of 100 mg of drug per kilogram of mouse per day (based on average daily intake of […] of chow). After two weeks, harvest of lung tissue was performed for RNA/protein extraction or paraffin embedding. Messenger RNAs were reverse transcribed using the Multiscript RT kit (Life Technologies) to generate cDNA. cDNA was amplified via fluorescently labeled Taqman primer sets using an Applied Biosystems 7900HT Fast Real Time PCR device. […] A primary antibody against YAP1 (#4912; 1/200) was obtained from Cell Signaling. Primary antibodies against, LRP8 (ab115196; 1/100), α-SMA (1/400) were purchased from Abcam. Primary antibodies against PPARγ (sc-7273; 1/50) was purchased from Santa Cruz. Primary antibody against anti-shortmer ([…]-[…]; 1/1000) was provided by Regulus Therapeutics, as previously described^2. […] Pictures were obtained using an Olympus Bx51 microscope. For liver tissue and pulmonary tissue, 10 random 20× fields per animal were analyzed. Intensity of staining was quantified using ImageJ software (NIH). […] Degree of liver fibrosis was assessed in paraffin-embedded liver sections stained for α-SMA by […] score^65. All measurements were performed blinded to condition. […] The sections were then serially imaged using with an analyzer and polarizer oriented parallel and orthogonal to each other. Microscope conditions (lamp brightness, condenser opening, objective, zoom, exposure time, and gain parameters) were constant throughout the imaging of all samples. A minimal threshold was set on appropriate control sections for each experiment in which only the light passing through the orthogonally-oriented polarizers representing fibrous structures (i.e., excluding residual light from the black background) was included. The threshold was maintained for all images across all conditions within each experiment. The area of the transferred regions that was covered by the thresholded light was calculated and at least 10 sections per condition were averaged together (Image J software).

In the case of “endothelin-1: recombinant human EDN1 applied to PASMCs at 1 nM (CSCSSLMDKECVYFCHLDIIW; ends and bridges not checked; cysteine pairing not given here; UniProt P05305 53-73, looked up)”, the “STAT3 phosphorylation in PASMCs” value [1] is reported as “time-dependent increase”, the “STAT3 phosphorylation in PASMCs” value ([1]; listed as EDN1) is reported as “increased” and the “matrigel contraction of PASMC culture” value [2] is reported as “led to matrigel contraction”. For the same compound, the “matrigel contraction of PASMC culture” value ([2]; listed as EDN1) was “increased”.
O=C(O)Cc1cccc(OCCCN(Cc2cccc(C(F)(F)F)c2Cl)CC(c2ccccc2)c2ccccc2)c1 [GW3965] was tested, and the “Pparγ and Lrp8 (and Timp2) expression” value ([3]; IHC / in situ stain) was “blunted”, the “Ctgf, collagen isoforms and Lox transcripts” value ([3]; RT-PCR) was “reduced” and the “collagen deposition and cross-linking” value ([3]; Short-130 20 mg/kg i.p. or GW3965 100 mg/kg dietary) was “blunted”. The “lung fibrosis (α-SMA, collagen staining, Ashcroft score)” value ([3]; Short-130 or GW3965 100 mg/kg dietary) was “ameliorated”, the “Yap nuclear localization / YAP” value ([3]; in situ stain) was “blunted” and the perivascular collagen crosslinking ([4]; Picrosirius Red) was “inhibited; also recorded: decreased”. For the same compound, the “Ctgf, collagen isoforms, and Lox in lung” value ([4]; RT-qPCR) was “blunted”, the “whole lung collagen content and crosslinked collagen” value ([4]; Sircol assay) was “nearly normalized” and the arteriolar muscularization ([4]; hypoxic mice) was “decreased; also recorded: prevented”. The “right ventricular hypertrophy (Fulton index, RV/LV+S)” value ([4]; hypoxic mice) was “decreased; also recorded: prevented”, the RVSP ([4]; hypoxic mice, BAPN prevention and rescue, GW3965 100 mg/kg/day in chow, 100 mg/kg/day) was “decreased; also recorded: prevented” and the “hypoxia mediated decreases of Lrp8 and Pparγ” value ([4]; in situ staining) was “reversed; also recorded: prevented”. The “hypoxia-mediated increases of α-SMA and YAP” value ([4]; in situ staining) was “reduced; also recorded: blunted”, the “Pparγ and Lrp8 down-regulation” value [5] was “reversed” and the “YAP activation, Ctgf expression” value [5] was “decreased”. The YAP nuclear localization [5] was “reduced”, the collagen crosslinking ([5]; two weeks) was “inhibited” and the “indices of lung fibrosis, Ashcroft score” value ([5]; two weeks) was “decreased”.
